From ChEMBL document CHEMBL1122015, “Rigid analogues of dopamine: synthesis and interaction of 6-exo- and 6-endo-(3',4'-dihydroxyphenyl)-2-azabicyclo[2.2.2]octanes with dopamine uptake sites and receptors” (J Med Chem, 1982)

Key:
Rattus norvegicus [1] = species: Rattus norvegicus; assay: Inhibition of the uptake of [3H]DA by corpus striatum synaptosomes of reserpine-pretreated rat; assay type: functional
Rattus norvegicus [2] = species: Rattus norvegicus; assay: Reported to half-maximally effective concentration of reserpine-pretreated rat
Rattus norvegicus [3] = species: Rattus norvegicus; assay: Effect on DA-sensitive adenylate cyclase activity in rat striatal homogenates; assay type: functional

| Structure (SMILES) | IC50 (Rattus norvegicus [1]) [µM] | Activity (Rattus norvegicus [3]) [%] | further results |
| --- | --- | --- | --- |
| N[C@H]1C[C@@H]1c1ccccc1 (racemic) |  |  | IC50 (Rattus norvegicus [1]; Rattus norvegicus, Corpus striatum): 0.9 µM; IC50 (Rattus norvegicus [2]): 1700 nM |
| Oc1ccc([C@H]2CC3CC[C@H]2NC3)cc1O (relative stereo) [listing 1 of 2 here] | 32 |  |  |
| NCCc1ccc(O)c(O)c1 |  | 210 |  |
| Oc1ccc([C@H]2CC3CC[C@H]2NC3)cc1O (stereo in doubt; 1) [listing 1 of 2 here] | 110 |  |  |
| Oc1ccc([C@H]2CC3CC[C@H]2NC3)cc1O (stereo in doubt; 1) [listing 2 of 2 here] |  | 117 |  |
| Oc1ccc([C@H]2CC3CC[C@H]2NC3)cc1O (relative stereo) [listing 2 of 2 here] |  | 93 |  |
